From patent US7776826B2, “Method for fostering bone formation and preservation” (Unigene Laboratories, Inc., priority 2004, dated 2010) come the findings set out here.

Type in all cases: in vivo, rat
The subject of assay [1] is Male Sprague-Dawley rats. Put plainly: High resolution radiograms of left and right femurs, Groups A-J. The note with it: left femur with bmx, 21 days. Here is the method: FIG. 3 (a-e) present high resolution radiograms of, respectively, the left (ablated) and right (non-ablated) femurs of some of the rats described with regard to FIGS. 1 and 2 above. (See discussion below of Tables 1 and 2) The radiographs were taken three weeks (i.e., 21 days) following commencement of treatment. The rats were treated as follows: (a) control (i.e., no surgery); (b) sham (i.e., surgery without marrow ablation); (c) mechanical bone marrow ablation (bmx)+phosphate buffer saline (PBS) administration daily for 21 days; (d) bmx followed by parathyroid hormone (PTH[1-34]-NH2) administered daily for 21 days; and (e) bmx followed by parathyroid hormone (PTH[1-34]-NH2) administered daily for 7 days and then salmon calcitonin given daily from days 7-21. A marking of bmx with regard to a right (non-ablated) femur means that
FIG. 3 presents a set of high resolution radiograms of the entire left and right femurs from rats taken from some of the groups A-J described above. In each of the views shown, the treatment modality is indicated in the lower left corner of the radiogram. The following abbreviations are used: Control=no surgery; Sham=surgery without any bone marrow ablation; BMX=bone marrow ablation; PBS=phosphate buffer saline; PTH=parathyroid hormone (PTH[1-34]-NH2); and CT= salmon calcitonin. […]

Assay [2] concerns Male Sprague-Dawley rats. Put plainly: High resolution radiograms of left and right femurs, Groups K-R. The note with it: left femur with bmx, agent daily for 21 days. The text has this: FIG. 10 (a-b) presents high resolution radiograms of the left and right femurs, respectively, from an additional series of experiments on additional groups of male Sprague-Dawley rats (6 rats per group) aged 9 weeks which were sacrificed and tested after 21 days (3 weeks). The various groups were subjected to the following treatment modalities: Group K—control day 0; Group L—control day 21; Group M—bone marrow ablation (bmx) day 0; Group N—sham day 21; Group O— bmx+phosphate buffer saline (PBS) daily for 21 days; Group P—bmx+PTH[1-34]-NH2 daily for 21 days; Group Q—bmx+ parathyroid hormone related peptide (PTHRP) daily for 21 days; and Group R—bmx+rat α-calcitonin gene related peptide (CGRP) daily for 21 days;
FIG. 10 (a-b) presents a set of high resolution radiograms of the entire left and right femurs of additional (to those described above) groups of rats, injected daily for a designated term with one or more of the following agents: phosphate buffer saline (PBS); parathyroid hormone (PTH[1-34]-NH2); parathyroid hormone related peptide (PTHrP); and calcitonin gene related peptide (CGRP). The rats chosen for test subjects were subjected to the following treatment modalities (as indicated in the lower left corner of each of the radiograms): control day 0; control day 21; bone marrow ablation (bmx) day 0; sham day 21; bmx followed by injection of PBS buffer daily for 21 days; bmx followed by injection of PTH daily for 21 days; bmx followed by injection of PTHrP daily for 21 days; and bmx followed by injection of CGRP daily for 21 days.
As shown by FIG. 10(a), the best results, i.e., the greatest bone density, was obtained in the left femur wherein the effect of the bone marrow ablation overlapped with that attributable to the administration of the various anabolic agents. As in the case of FIG. 3, the lighter, i.e, more radio-opaque, areas indicate the locations of the greatest additional bone growth.

Assay [3] relates to Male Sprague-Dawley rats. Put plainly: MicroCT analysis of left femoral shafts, Groups A-J. Conditions: left femoral shaft with bmx. The text has this:
FIG. 6 illustrates the results of Micro Computerized Tomography (MicroCT) analyses of the left (ablated) femoral shafts of the rats which are the subjects of FIGS. 3-4. The abbreviations mean the same as in FIGS. 3-5;
FIG. 6 illustrates the results of a Micro Computerized Tomography (MicroCT) analysis of representative bones taken from the left femoral shaft of control and treated rats. The modality of treatment is set forth in the lower left corner of each of the views, and the abbreviations used therein are the same as those which appear in FIGS. 3-5. The Figure provides a view through a section of each such bone shaft.
The bones were thereafter subjected to a variety of sample analysis techniques. These included X-ray analysis wherein the femurs were X-rayed in individually sealed plastic bags; PIXIMUS analysis using a Lunar PIXIMUS scanner to measure bone mineral density in the bone marrow cavity of the femurs; MicroCT analysis; and blood analysis for osteocalcin, PTH, CT, NTX and growth factors.

Assay [4] deals with osteoporotic female Sprague-Dawley rats. Briefly: Lumbar vertebral bone mineral density and bone formation rate in ovariectomized osteoporotic rats, without mechanical induction. Conditions: OVX rats, 4 weeks subcutaneous treatment, no mechanical induction. As for the experimental part:
FIG. 15 is a bar graph comparing the Lumbar Vertebral Bone Mineral Density obtained in osteoporotic female Sprague-Dawley rats wherein the osteoporosis was induced via an ovariectomy. The rats were treated with (1) PTH[1-31]-NH2; (2) PTH[1-34]-NH2; and PTH[1-34]-OH; and
FIG. 16 is a bar graph comparing the Lumbar Vertebral Bone Formation Rate obtained in osteoporotic female Sprague-Dawley rats wherein the osteoporosis was induced via an ovariectomy. The rats were treated with (1) PTH[1-31]-NH2; (2) PTH[1-34]-NH2; and PTH[1-34]-OH.
A series of experiments was performed comparing (1) lumbar vertebral bone mineral density, and (2) lumbar vertebral bone formation rate achieved with PTH[1-31]-NH2 and PTH[1-34]-OH compared to the preferred PTH[1-34]-NH2 analog discussed above in the absence of the mechanical induction step of the invention. The study involved a four-week treatment of female Sprague-Dawley rats at 10 months of age, and 6 months post-ovariectomy (“OVX”), which induces osteoporosis, with one of the three above-noted parathyroid hormone truncates. The rats were randomized into the following groups: sham OVX, OVX+ vehicle, OVX+PTH [1-31]-NH2 or PTH [1-34]-NH2 (obtained from Unigene Laboratories, Inc.) at 2.5, 10 or 40 μg/kg/day subcutaneous, or PTH[1-34]-OH (obtained from Bachem) at 10 μg/kg/day subcutaneous. After 4 weeks of treatment, the right femur of each animal was analyzed by DEXA and bone histomorphometry. FIG. 15 is a bar graph providing a comparison of the lumbar vertebral bone mineral density achieved with PTH[1-31]-NH2, PTH[1-34]-NH2 and PTH[1-34]-OH. FIG. 16 is a bar graph comparing the lumbar vertebral formation rates achieved with these same truncates. […] Because of the similarity of anabolic action among the above-discussed parathyroid hormones, it is therefore reasonable to expect that all known PTH analogs will advantageously function in the desired manner in the method of the present invention.

Regarding PTH[1-34]-NH2, the “bone growth on radiograms, in words” value in the assay on Male Sprague-Dawley rats [1] is “greatest bone growth”. Further, the “bone density on radiograms, in words” value with Male Sprague-Dawley rats [2] is “best results”. For the same substance, the “new bone growth in MicroCT, in words” value in the assay with Male Sprague-Dawley rats [3] is on record as “most extensive new bone growth”. Moreover, the “bone anabolic activity (lumbar vertebral bone mineral density and bone formation rate)” value in assay [4] is “substantially equivalent”.
